Results reported in US4374840A, “Certain phenyl or pyridyl-propanol-amines containing alkyl-nitrate moieties” (Kowa Company, Ltd., priority 1980, dated 1983).

Assays:
[1] = Test [III]: left ventricular end diastolic pressure (LVEDP) in anesthetized dogs; type: in vivo; details: anesthetized mongrel dogs, 20 μg/kg i.v.
Procedure: (§1) Mongrel dogs were anesthetized by intravenous administration of 30 mg/kg of pentobarbital, and examined under artifical respiration for the following items.
(1) Left ventricular end diastolic pressure (LVEDP)
Measured by advancing a catheter transducer to the left ventricle.
(§2) Dose and Method of Administration:
(§3) Each of the compounds shown in Tables 2 to 4 was dissolved in 0.1 N hydrochloric acid, and intravenously administered in a dose of 20 μg/kg.

[2] = Test [III]: coronary blood flow in anesthetized dogs; type: in vivo; details: anesthetized mongrel dogs, 20 μg/kg i.v.
Procedure: as §1
Measured by setting an electro magnetic flow meter probe in the left circumflex branch.
as §2, §3

[3] = Test [I]: blood pressure in pentobarbital-anesthetized dogs, i.v.; type: in vivo; parameters: key to duration of hypotensive action (mark (*): especially longlasting): +: a reduction of less than 20%; ++: a reduction of 20 to 50%; +++: a reduction of more than 50%; (*): The hypotensive action is especially longlasting; details: anesthetized adult dogs, 20 μg/kg i.v.; for inhibition in vivo at 0.02 mg/kg: Canis lupus familiaris, iv, read-out: Reduction in blood pressure
Procedure: (§4) Adult dogs were anesthetized by intravenous administration of 30 mg/kg of pentobarbital, and examined under artificial respiration for the action of the compound of this invention on blood pressure and heart rate.
A catheter was inserted into the femoral artery, and connected to a pressure transducer for measurement of the blood pressure.
as §2
(§5) The test drug was dissolved in 0.1 N hydrochloric acid, and administered intravenously in a dose of 20 μg/kg.
(§6) The numbered compounds in the following tables correspond to the compounds obtained in the correspondingly numbered Examples given hereinbelow.

[4] = Test [I]: heart rate in pentobarbital-anesthetized dogs, i.v.; type: in vivo; details: Canis lupus familiaris, iv; anesthetized adult dogs, 20 μg/kg i.v.; read-out: Reduction in heart rate
Procedure: as §4
Measured by pulse pressure changes.
as §2, §5, §6

[5] = tested on: isolated atrial muscle of a guinea pig; assay: Test [II]: antagonistic action against isoproterenol on isolated atrial muscle (β-blocking action); details: 10^-9 to 4×10^-4 mole, control drug propranolol hydrochloride
Procedure: The isolated atrial muscle of a guinea pig was used, and its contractile force and heart rate were recorded. Thus, the antagonistic action of the test drug against isoproterenol was examined. The drug was used in a concentration of 10^-9 to 4×10^-4 mole. As a control drug, propranolol hydrochloride was used.

[6] = Test [III]: common carotid blood flow in anesthetized dogs; type: in vivo; details: anesthetized mongrel dogs, 20 μg/kg i.v.
Procedure: as §1
(3) Common carotid blood flow
Measured by setting an electromagnetic flow probe at the common carotid artery.
as §2, §3

Row | SMILES | Decrease rate (%) in LVEDP [1] | Increase rate (%) in coronary flow [2] | inhibition in vivo at 0.02 mg/kg [3] | inhibition in vivo at 0.02 mg/kg [4] | antagonistic action against isoproterenol, compared with propranolol hydrochloride [5] | also measured
1 | CC(C)NCC(O)COc1cccc(OCCO[N+](=O)[O-])c1 (stereo not shown) [Compound 1, 1-iso-Propylamino-3-[3-(2-nitratoethoxy)phenoxy]-2-propanol] | .dwnarw..dwnarw..dwnarw. (a decrease of more than 40%) |  |  |  |  | 
2 | CC(C)NCC(O)COc1ccccc1OCCO[N+](=O)[O-] (stereo not shown) [Compound 2, 1-iso-Propylamino-3-[2-(2-nitrotoethoxy)phenoxy]-2-propanol] |  | .uparw..uparw. (an increase of more than 30%) | 20 to 50% | 20 to 50% |  | 
3 | COc1ccc(OCC(O)CNC(C)C)cc1OCCO[N+](=O)[O-] (stereo not shown) [Compound 3, 1-iso-Propylamino-3-[[4-methoxy-3-(2-nitratoethoxy)]phenoxy]-2-propanol] |  |  |  |  | same degree of action as the control drug | 
4 | COc1ccc(C(O)CNC(C)CCc2ccccc2)cc1OCCO[N+](=O)[O-] (stereo not shown) [Compound 4, 1-[4-methoxy-3-(2-nitratoethoxy)phenyl]-2-(1-methyl-3-phenylpropyl)aminoethanol] |  |  |  |  | same degree of action as the control drug | 
5 | CC(C)NCC(O)COc1ccc(OCCO[N+](=O)[O-])cc1 (stereo not shown) [Compound 6, 1-iso-Propylamino-3-[4-(2-nitratoethoxy)phenoxy]-2-propanol] | .dwnarw..dwnarw. (a decrease of 20 to 40%) | .uparw..uparw. (an increase of more than 30%) | > 50% | > 50% |  | Increase rate (%) in flow in the common carotid artery [6]: .uparw..uparw. (an increase of more than 30%); duration of hypotensive action (mark (*): especially longlasting) [3]: (*)
6 | CC(C)NCC(O)COc1ccc(OCCCO[N+](=O)[O-])cc1 (stereo not shown) [Compound 7, 1-iso-Propylamino-3-[4-(3-nitratopropoxy)phenoxy]-2-propanol] | .dwnarw..dwnarw..dwnarw. (a decrease of more than 40%) | .uparw..uparw. (an increase of more than 30%) | 20 to 50% | > 50% |  | Increase rate (%) in flow in the common carotid artery [6]: .uparw..uparw. (an increase of more than 30%)
7 | CC(C)NCC(O)COc1ccccc1OCCCO[N+](=O)[O-] (stereo not shown) [Compound 8, 1-iso-Propylamino-3-[2-(3-nitratopropoxy)phenoxy]-2-propanol] |  |  |  |  | same degree of action as the control drug | 
8 | COc1ccc(OCCO[N+](=O)[O-])cc1OCC(O)CNC(C)C (stereo not shown) [Compound 13, 1-iso-Propylamino-3-[2-methoxy-5-(2-nitratoethoxy)phenoxy]-2-propanol] |  |  |  |  | same degree of action as the control drug | 
9 | CC(CCc1ccccc1)NCC(O)c1ccccc1OCCO[N+](=O)[O-] (stereo not shown) [Compound 14, 1-[2-(2-Nitratoethoxy)phenyl]-2-(1-methyl-3-phenylpropyl)aminoethanol] |  |  |  |  | same degree of action as the control drug | 
10 | CC(C)NCC(O)COc1cccc(OCCO[N+](=O)[O-])n1 (stereo not shown) [Compound 15, 1-iso-Propylamino-3-[6-(2-nitratoethoxy)-2-pyridyloxy]-2-propanol] |  |  |  |  | same degree of action as the control drug | 
11 | COc1cc(OCCO[N+](=O)[O-])ccc1OCC(O)CNC(C)C (stereo not shown) [Compound 17, 1-iso-Propylamino-3-[2-methoxy-4-(2-nitratoethoxy)phenoxy]-2-propanol] |  |  |  |  | same degree of action as the control drug | 
12 | C=CCOc1cc(OCCO[N+](=O)[O-])ccc1OCC(O)CNC(C)C (stereo not shown) [Compound 23, 1-iso-Propylamino-3-[2-allyloxy-4-(2-nitratoethoxy)phenoxy]-2-propanol] | .dwnarw..dwnarw. (a decrease of 20 to 40%) |  | 20 to 50% | > 50% |  | 
13 | CCC(CC)NCC(O)COc1cccc(OCCCO[N+](=O)[O-])c1 (stereo not shown) [Compound 26, 1-(1-Ethylpropyl)amino-3-[3-(3-nitratopropoxy)phenoxy]-2-propanol] |  | .uparw. (an increase of 30% or less) |  |  |  | Increase rate (%) in flow in the common carotid artery [6]: .uparw. (an increase of 30% or less)
14 | CC(C)NCC(O)COc1ccccc1OCCCCCCO[N+](=O)[O-] (stereo not shown) [Compound 32, 1-iso-Propylamino-3-[2-(6-nitratohexyloxy)phenoxy]-2-propanol] |  | .uparw. (an increase of 30% or less) |  |  |  | 
15 | C=CCOc1cc(OCCO[N+](=O)[O-])c(Cl)cc1OCC(O)CNC(C)C (stereo not shown) [Compound 33, 1-iso-Propylamino-3-[2-allyloxy-5-chloro-4-(2-nitratoethoxy)phenoxy]-2-propanol] | .dwnarw. (a decrease of less than 20%) | .uparw. (an increase of 30% or less) | 20 to 50% | 20 to 50% |  | Increase rate (%) in flow in the common carotid artery [6]: .uparw. (an increase of 30% or less); duration of hypotensive action (mark (*): especially longlasting) [3]: (*)
16 | CC(C)NCC(O)COc1ccc(OCCO[N+](=O)[O-])c(Cl)c1 (stereo not shown) [Compound 34, 1-iso-Propylamino-3-[3-chloro-4-(2-nitratoethoxy)phenoxy]-2-propanol] |  | .uparw. (an increase of 30% or less) |  |  |  | Increase rate (%) in flow in the common carotid artery [6]: .uparw. (an increase of 30% or less)
17 | CC(C)NCC(O)COc1ccc(OCCO[N+](=O)[O-])cc1OCCO[N+](=O)[O-] (stereo not shown) [Compound 50, 1-iso-Propylamino-3-[2,4-di-(2-nitratoethoxy)phenoxy]-2-propanol] | .dwnarw..dwnarw. (a decrease of 20 to 40%) |  | > 50% | > 50% |  | 
18 | CC(C)NCC(O)COc1ccc(OCCO[N+](=O)[O-])c(C(N)=O)c1 (stereo not shown) [Compound 55, 1-iso-Propylamino-3-[3-carbamoyl-4-(2-nitratoethoxy)phenoxy]-2-propanol] |  |  | 20 to 50% | > 50% |  | 
19 | CC(C)NCC(O)COc1ccc(CCCO[N+](=O)[O-])cc1 (stereo not shown) [Compound 61, 1-iso-Propylamino-3-[4-(3-nitratopropyl)phenoxy]-2-propanol] |  |  | > 50% | > 50% |  | Increase rate (%) in flow in the common carotid artery [6]: .uparw. (an increase of 30% or less)
20 | CC(C)NCC(O)COc1ccc(CCCCO[N+](=O)[O-])cc1 (stereo not shown) [Compound 62, 1-iso-Propylamino-3-[4-(4-nitratobutyl)phenoxy]-2-propanol] | .dwnarw. (a decrease of less than 20%) |  | > 50% | 20 to 50% |  | 
21 | CC(C)NCC(O)COc1c(OCCO[N+](=O)[O-])cccc1OCCO[N+](=O)[O-] (stereo not shown) [Compound 63, 1-iso-Propylamino-3-[2,6-di(2-nitratoethoxy)phenoxy]-2-propanol] |  |  | > 50% | > 50% |  | 
